Patent US7759331B2, “Pyridine-containing macroheterococylic compounds as kinase inhibitors” (Janssen Pharmaceutica NV, priority 2006, dated 2010)
Several values for one entry are separate records, joined by “and”; a condition that tells them apart may be missing. Equal values may be shown once.

Columns and labels:
PKA(b) = PKA(b) (Bos taurus, UniProt P00517); experiment: Protein kinase selectivity panel; format: biochemical, bovine; conditions: 1.0 μM compound, 10 μM ATP
Protocol: Protein kinase selectivity assays were performed as described in the scientific literature (Davies, S. P., et al., Biochem. J. 2000, 351, 95-105). Briefly, protein kinases were assayed for their ability to phosphorylate the appropriate peptide/protein substrates in the presence of 1.0 μM compound. Assays were done using 10 μM ATP and were linear with respect to time. The protein kinase selectivity assays were performed by Upstate Cell Signaling Solutions using Upstate's KinaseProfiler™ Selectivity Screening Service.

GSK3β(h) = GSK3β(h) (Homo sapiens, UniProt P49841); experiment: Glycogen Synthase Kinase-3 Assay; format: biochemical; conditions: assay run three times for each compound; each run's value listed
Protocol: Compounds were tested for the ability to inhibit GSK-3β protein. Briefly, in a final reaction volume of 25 μL, GSK-3β (h) (5-10 mU) was incubated with 8 mM MOPS pH 7.0, 0.2 mM EDTA, 20 μM […](p)EDEEE (phospho GS2 peptide), 10 mM Mg Acetate and [γ-^33P-ATP] (specific activity approx. 500 cpm/pmol, concentration as required). The reaction was initiated by the addition of the MgATP mix. After incubation for 40 minutes at room temperature, the reaction was stopped by the addition of 5 μL of a 3% phosphoric acid solution. 10 μL of the reaction was then spotted onto a P30 filtermat and washed three times for 5 minutes in 50 mM phosphoric acid and once in methanol prior to drying and scintillation counting.
The GSK-3β assay was run three times for each compound.

EphB2(h) = molecular target: T1, EphB2(h) (Homo sapiens, UniProt P29323); experiment: Protein kinase selectivity panel; format: biochemical; conditions: 1.0 μM compound, 10 μM ATP
T1 sequence (P29323 19-1055): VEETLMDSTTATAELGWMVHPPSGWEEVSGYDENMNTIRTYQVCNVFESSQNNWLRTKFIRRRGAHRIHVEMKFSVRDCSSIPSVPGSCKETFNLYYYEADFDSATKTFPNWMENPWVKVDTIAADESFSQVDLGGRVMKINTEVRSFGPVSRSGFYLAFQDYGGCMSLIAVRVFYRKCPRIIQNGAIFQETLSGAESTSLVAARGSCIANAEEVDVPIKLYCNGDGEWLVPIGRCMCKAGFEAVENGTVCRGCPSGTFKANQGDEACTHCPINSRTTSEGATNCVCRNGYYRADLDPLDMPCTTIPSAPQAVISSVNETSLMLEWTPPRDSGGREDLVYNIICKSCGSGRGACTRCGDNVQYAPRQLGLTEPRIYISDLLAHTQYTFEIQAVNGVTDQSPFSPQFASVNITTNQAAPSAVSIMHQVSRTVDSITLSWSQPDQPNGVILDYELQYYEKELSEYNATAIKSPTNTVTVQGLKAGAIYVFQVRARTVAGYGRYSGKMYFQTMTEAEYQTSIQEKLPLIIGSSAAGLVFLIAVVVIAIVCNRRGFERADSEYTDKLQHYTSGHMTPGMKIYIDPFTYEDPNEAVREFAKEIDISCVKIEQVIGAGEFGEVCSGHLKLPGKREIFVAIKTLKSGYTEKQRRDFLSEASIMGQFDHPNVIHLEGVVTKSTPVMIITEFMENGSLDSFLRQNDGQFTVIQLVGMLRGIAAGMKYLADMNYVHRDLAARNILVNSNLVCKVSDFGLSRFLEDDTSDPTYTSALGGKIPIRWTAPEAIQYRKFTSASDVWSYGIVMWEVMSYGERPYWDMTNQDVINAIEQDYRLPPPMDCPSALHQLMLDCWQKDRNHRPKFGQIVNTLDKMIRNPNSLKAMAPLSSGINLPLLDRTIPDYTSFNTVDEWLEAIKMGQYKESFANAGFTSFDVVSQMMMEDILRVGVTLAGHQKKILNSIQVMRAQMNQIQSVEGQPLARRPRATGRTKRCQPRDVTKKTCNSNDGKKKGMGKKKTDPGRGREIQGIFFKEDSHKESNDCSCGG
Method in brief: (§1)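 Single-point screen: compound 1.0 μM; ATP 10 μM; peptide/protein substrate matched to each kinase; reaction linear in time.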

Yes(h) = molecular target: T2, Yes(h) (Homo sapiens, UniProt P07947); experiment: Protein kinase selectivity panel; format: biochemical; conditions: 1.0 μM compound, 10 μM ATP
T2 construct: purchased Upstate Cell Signaling Solutions (KinaseProfiler Selectivity Screening Service)
Method in brief: as §1

Tie2(h) = Tie2(h) (Homo sapiens, UniProt Q02763); experiment: Protein kinase selectivity panel; format: biochemical; conditions: 1.0 μM compound, 10 μM ATP
Method in brief: as §1

MAPK2(m) = MAPK2(m) (Mus musculus, UniProt P63085); experiment: Protein kinase selectivity panel; format: biochemical; conditions: 1.0 μM compound, 10 μM ATP
Method in brief: as §1

PKBα(h) = PKBα(h) (Homo sapiens, UniProt P31749); experiment: Protein kinase selectivity panel; format: biochemical; conditions: 1.0 μM compound, 10 μM ATP
Method in brief: as §1

Tie2(h), sequence (Q02763 23-1124): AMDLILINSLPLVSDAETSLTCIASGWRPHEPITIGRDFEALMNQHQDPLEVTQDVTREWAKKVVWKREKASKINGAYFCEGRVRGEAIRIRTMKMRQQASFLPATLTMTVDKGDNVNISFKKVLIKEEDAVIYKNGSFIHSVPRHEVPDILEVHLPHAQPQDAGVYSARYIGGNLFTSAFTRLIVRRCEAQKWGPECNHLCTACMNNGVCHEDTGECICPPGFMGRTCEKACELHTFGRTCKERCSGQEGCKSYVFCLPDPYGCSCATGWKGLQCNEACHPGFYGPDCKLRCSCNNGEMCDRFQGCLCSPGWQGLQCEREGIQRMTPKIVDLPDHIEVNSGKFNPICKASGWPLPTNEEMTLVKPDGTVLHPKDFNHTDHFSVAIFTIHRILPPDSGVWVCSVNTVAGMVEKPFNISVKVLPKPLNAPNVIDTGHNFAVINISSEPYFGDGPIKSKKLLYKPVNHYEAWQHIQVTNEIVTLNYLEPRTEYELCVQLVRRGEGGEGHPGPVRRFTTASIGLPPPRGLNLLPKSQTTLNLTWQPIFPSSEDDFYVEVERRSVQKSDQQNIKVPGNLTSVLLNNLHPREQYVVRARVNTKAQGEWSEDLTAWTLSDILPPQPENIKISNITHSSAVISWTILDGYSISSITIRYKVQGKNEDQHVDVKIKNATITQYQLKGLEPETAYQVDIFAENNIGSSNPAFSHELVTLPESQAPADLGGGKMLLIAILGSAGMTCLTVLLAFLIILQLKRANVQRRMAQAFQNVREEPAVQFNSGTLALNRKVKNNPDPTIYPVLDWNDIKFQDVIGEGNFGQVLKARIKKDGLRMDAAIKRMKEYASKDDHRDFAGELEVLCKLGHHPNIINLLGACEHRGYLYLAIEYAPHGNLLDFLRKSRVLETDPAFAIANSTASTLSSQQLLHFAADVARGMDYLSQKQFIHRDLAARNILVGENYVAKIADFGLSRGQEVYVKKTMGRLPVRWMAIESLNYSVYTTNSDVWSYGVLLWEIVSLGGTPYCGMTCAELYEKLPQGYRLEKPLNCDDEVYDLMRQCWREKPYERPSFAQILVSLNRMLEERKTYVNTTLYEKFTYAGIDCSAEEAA
PKBα(h), sequence (P31749 whole entry): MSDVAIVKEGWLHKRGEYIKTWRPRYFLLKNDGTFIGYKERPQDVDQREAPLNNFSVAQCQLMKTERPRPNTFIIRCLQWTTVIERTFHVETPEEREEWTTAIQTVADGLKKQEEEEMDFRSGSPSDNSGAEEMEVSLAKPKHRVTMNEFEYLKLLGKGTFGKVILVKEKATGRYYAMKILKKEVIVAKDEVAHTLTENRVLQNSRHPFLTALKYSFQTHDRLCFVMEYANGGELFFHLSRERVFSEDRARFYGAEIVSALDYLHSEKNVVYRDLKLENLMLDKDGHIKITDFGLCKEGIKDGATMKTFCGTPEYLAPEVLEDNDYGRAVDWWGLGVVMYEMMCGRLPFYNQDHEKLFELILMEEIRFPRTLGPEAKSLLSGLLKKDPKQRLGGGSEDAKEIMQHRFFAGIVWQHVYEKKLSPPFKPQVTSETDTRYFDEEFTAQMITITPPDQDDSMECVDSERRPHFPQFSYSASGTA
GSK3β(h), sequence (P49841 whole entry): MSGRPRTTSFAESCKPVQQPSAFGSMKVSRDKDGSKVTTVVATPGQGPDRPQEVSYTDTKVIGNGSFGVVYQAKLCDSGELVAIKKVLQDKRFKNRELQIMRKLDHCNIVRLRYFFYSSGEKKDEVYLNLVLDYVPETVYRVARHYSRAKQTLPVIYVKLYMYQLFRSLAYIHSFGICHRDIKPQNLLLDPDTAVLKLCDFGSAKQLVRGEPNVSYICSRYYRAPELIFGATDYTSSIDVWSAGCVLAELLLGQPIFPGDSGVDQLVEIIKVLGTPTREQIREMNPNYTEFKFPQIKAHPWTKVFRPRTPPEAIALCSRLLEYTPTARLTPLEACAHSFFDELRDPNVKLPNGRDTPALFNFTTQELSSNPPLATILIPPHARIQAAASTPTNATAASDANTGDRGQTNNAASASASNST
MAPK2(m), sequence (P63085 whole entry): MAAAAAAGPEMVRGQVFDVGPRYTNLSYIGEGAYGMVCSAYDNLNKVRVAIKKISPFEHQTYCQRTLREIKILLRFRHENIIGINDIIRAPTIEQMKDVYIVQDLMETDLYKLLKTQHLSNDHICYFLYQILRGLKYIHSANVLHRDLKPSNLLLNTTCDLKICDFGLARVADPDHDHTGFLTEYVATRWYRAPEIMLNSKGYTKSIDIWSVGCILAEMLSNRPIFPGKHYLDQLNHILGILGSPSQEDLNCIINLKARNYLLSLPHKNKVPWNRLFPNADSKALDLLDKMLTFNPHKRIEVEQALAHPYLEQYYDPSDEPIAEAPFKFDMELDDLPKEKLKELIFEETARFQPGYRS
T2 sequence (P07947 whole entry): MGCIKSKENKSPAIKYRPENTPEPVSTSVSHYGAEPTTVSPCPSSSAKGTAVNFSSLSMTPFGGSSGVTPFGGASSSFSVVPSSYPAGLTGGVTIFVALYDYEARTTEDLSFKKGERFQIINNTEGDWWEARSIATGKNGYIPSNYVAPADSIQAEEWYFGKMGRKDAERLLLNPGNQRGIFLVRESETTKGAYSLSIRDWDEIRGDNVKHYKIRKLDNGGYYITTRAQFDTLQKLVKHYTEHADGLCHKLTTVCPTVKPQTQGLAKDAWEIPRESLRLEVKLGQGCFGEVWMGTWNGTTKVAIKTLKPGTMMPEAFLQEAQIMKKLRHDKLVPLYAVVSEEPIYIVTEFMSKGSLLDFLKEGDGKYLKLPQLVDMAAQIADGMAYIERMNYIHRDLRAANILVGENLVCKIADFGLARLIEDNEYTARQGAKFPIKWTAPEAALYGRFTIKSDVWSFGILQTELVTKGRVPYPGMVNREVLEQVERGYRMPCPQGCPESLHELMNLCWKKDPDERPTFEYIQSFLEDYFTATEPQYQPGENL

| Compound | Activity at Protein Kinase Assays (% of control), PKA(b) (PKA(b)) | IC50 (GSK3β(h)) | Activity at Protein Kinase Assays (% of control), EphB2(h) (EphB2(h)) | Activity at Protein Kinase Assays (% of control), Yes(h) (Yes(h)) | Activity at Protein Kinase Assays (% of control), Tie2(h) (Tie2(h)) | Activity at Protein Kinase Assays (% of control), MAPK2(m) (MAPK2(m)) | Activity at Protein Kinase Assays (% of control), PKBα(h) (PKBα(h)) |
| --- | --- | --- | --- | --- | --- | --- | --- |
| CN(C)c1cc2cc(n1)CCCn1cc(c3ccccc31)C1=C(C(=O)NC1=O)c1cn(c3ccccc13)CCC2 [Cpd 2, 20-(dimethylamino)-4,14,19,26-tetraazaheptacyclo[24.6.1.1^7,14.1^18,22.0^2,6.0^8,13.0^27,32]pentatriaconta-1(33),2(6),7(35),8,10,12,18(34),19,21,27,29,31-dodecaene-3,5-dione] | 107 % of control | 0.0014 µM and 0.0082 µM and 0.0123 µM | 114 % of control | 79 % of control | 109 % of control | 95 % of control | 114 % of control |
| CN(C)c1nc2ccc1CCCCn1cc(c3ccccc31)C1=C(C(=O)NC1=O)c1cn(c3ccccc13)CCC2 [Cpd 1, 31-(dimethylamino)-5,15,25,32-tetraazaheptacyclo[28.2.2.1^5,12.1^18,25.0^6,11.0^13,17.0^19,24]hexatriaconta-1(32),6,8,10,12(36),13(17),18(35),19,21,23,30,33-dodecaene-14,16-dione] | 99 % of control | – | 125 % of control | 96 % of control | 110 % of control | 95 % of control | 94 % of control |
| O=C1NC(=O)C2=C1c1cn(c3ccccc13)CCCc1ccc(c(N3CCCC3)n1)CCCn1cc2c2ccccc21 [Cpd 7, 31-pyrrolidin-1-yl-5,15,25,30-tetraazaheptacyclo[27.2.2.1^5,12.1^18,25.0^6,11.0^13,17.0^19,24]pentatriaconta-1(31),6,8,10,12(35),13(17),18(34),19,21,23,29,32-dodecaene-14,16-dione] | 105 % of control | 0.058 µM and 0.0129 µM and 0.0193 µM | 114 % of control | 43 % of control | 107 % of control | 99 % of control | 106 % of control |
| O=C1NC(=O)C2=C1c1cn(c3ccccc13)CCCc1cc(nc(N3CCCC3)c1)CCCn1cc2c2ccccc21 [Cpd 6, 20-pyrrolidin-1-yl-4,14,19,26-tetraazaheptacyclo[24.6.1.1^7,14.1^18,22.0^2,6.0^8,13.0^27,32]pentatriaconta-1(33),2(6),7(35),8,10,12,18(34),19,21,27,29,31-dodecaene-3,5-dione] | 89 % of control | 0.027 µM and 0.0029 µM and 0.0038 µM | 110 % of control | 58 % of control | 96 % of control | 103 % of control | 112 % of control |
